Results: patent US11304939B2, “Methods for treating oral cancers” (Chang Gung University, priority 2020, dated 2022)

Legend:
[1] = system: SAS cells; test: MTT cell viability assay, SAS cells; assay type: cell-based; details: 48 hours; for cell viability / proliferation (MTT): vs vehicle control
Procedure: (§1) For cell viability assay, approximately 5×10^4 cells were seeded into each well of a 96-well plate, and treated with vehicle control or inhibitors at the indicated concentrations for 48 hours in complete medium, followed by MTT viability assay. The absorbance was read at 540 nm in a multiwell spectrophotometer (SpectraMax M2; Molecular Devices, USA). All samples were run in triplicate. For apoptosis assay, cells were plated in 6-well dishes, and treated with vehicle control or various inhibitors at the indicated concentrations for 48 hours. Cells were then harvested, washed with PBS, and stained with 2 μl an FITC-conjugated Annexin V antibody (Invitrogen, USA) and 50 μg/ml propidium iodide (Sigma-Aldrich, USA), followed by flow cytometry analysis (Attune NxT; Invitrogen, USA) and data analysis by FlowJo software (Tree Star, Inc.).

[2] = system: OEC-M1 cells; test: MTT cell viability assay, OEC-M1 cells; assay type: cell-based; details: 48 hours; for cell viability / proliferation (MTT): vs vehicle control
Procedure: as §1

[3] = system: SAS, OC3, and OEC-M1 cells; test: MTT cell viability assay, one range over three OSCC cell lines; assay type: cell-based; details: OECM1
Procedure: as §1

[4] = system: SAS cells; test: colony-forming assay, SAS cells; assay type: cell-based
[5] = system: OEC-M1 cells; test: colony-forming assay, OEC-M1 cells; assay type: cell-based
[6] = system: OSCC cells; test: apoptosis assay (Annexin V staining), OSCC cells; assay type: cell-based; details: increasing concentration
Procedure: as §1

[7] = system: AKT; test: immunoblotting of phosphorylation of AKT; assay type: cell-based; details: after UV exposure
Procedure: After treatments, whole-cell lysates from each sample were prepared by lysed with RIPA lysis buffer (1% NP_40, 20 mM Tris-HCl (pH 7.5), 150 mM NaCl, 1 mM Na3VO4, 5 mM EDTA (pH 8.0), 10% glycerol, PMSF, and 0.2% protease inhibitor) for 15-30 minutes on ice, and centrifuged at 15,000×g for 20 min at 4° C. Equal amounts of protein from each sample were fractionated by SDS-PAGE, and transferred to a PVDF membrane, which was incubated with the appropriate primary antibody. Proteins were detected with HRP-conjugated secondary antibodies and ECL substrate (PerkinElmer, USA).
In the present study, the efficacy of the PI3K inhibitors (e.g., BYL719, GDC-0941, and GSK1059615) toward eliminating OSCC cell lines (including SAS, OEC-M1, and OC3) was examined. First of all, cell proliferation assays after the PI3K inhibitors (i.e., BYL719, GDC-0941, and GSK1059615) treatments were performed, and the results were provided in FIG. 3A. […] The IC50 for BYL719 in the SAS, OC3, and OECM1 cell lines ranged from 8 to 20 μM (FIG. 3A). Another indication for measuring anti-cancer activity was by investigating the colony-forming ability of SAS and OEC-M1 cells treated with BYL719. […] The effects for PI3K inhibitors on the PI3K/AKT/mTOR signaling pathway were studied as well.

[8] = system: SAS cells xenograft; test: SAS cell line-derived xenograft (OSCC CDX) tumor growth; assay type: in vivo, NOD/SCID mice
Procedure: NOD/SCID mice and NOD.Cg-Prkdcscid Il2rgtm1Wjl/SzJ (NSG) mice were housed in an animal facility at Chang Gung University. For SAS cell line-derived xenograft (CDX) animal model, SAS cells were prepared in serum-free DMEM (5×10^6 cells per ml). SAS cell suspensions (100 μl) were injected subcutaneously into NOD/SCID mice (6-8 weeks), and tumors were established after 3-4 weeks. Once xenografts reached 300-500 mm^3, mice were randomly divided into the treatment groups or control groups. PF477736 was used at the dose of 10 or 20 mg/kg, and administered intraperitoneally 4 days/week. BYL719 was used at the dose of 25 or 50 mg/kg, and administered orally 5 days/week. Cisplatin was used at the dose of 5 mg/kg, and administered intraperitoneally 2 days/week. During the course of treatment (two to three weeks), the tumor size was monitored twice weekly, and the tumor volumes were calculated.

[9] = system: patient #1 PDX; test: OSCC PDX model, patient #1, tumor growth; assay type: in vivo, NSG mice; details: PF477736 20 mg/kg; for growth of PDX tumors vs control: Cisplatin 5 mg/kg, combined vs control p=0.0024
Procedure: (§2) For OSCC PDX animal model, three patients of newly diagnosed were recruited, and written consents were obtained in accordance with the protocols approved by the Institutional Review Board of Chang Gung Memorial Hospital. Patient tumor explants were prepared from surgical specimens, and engrafted into NSG mice within 2 hours. Briefly, fresh tumor tissues were rinsed in PBS containing an antibiotic-antimycotic solution (Gibco, USA), and chopped into small pieces (˜1 mm^3). Each NSG mouse was subcutaneously grafted with 50-100 mg tumors in the left flank. When tumors reached 400-500 mm^3 in size, animals were randomly assigned into control and different treatment groups. Treatments for each single drug were the same as those used in the SAS CDX model as described above. For combined treatments, for the combination therapy of Cisplatin and PF477736, Cisplatin was used at the dose of 5 mg/kg, and administered intraperitoneally 2 days/week for one week; whilst PF477736 was used at the dose of 20 mg/kg, and administered intraperitoneally 4 days/week for one week; and for the combination therapy of PF477736 and BYL719, PF477736 was used at the dose of 20 mg/kg, and administered intraperitoneally 4 days/week for one week; whilst BYL719 was used at the dose of 50 mg/kg, and administered orally 5 days/week for two weeks. Tumors were measured with calipers, and the volume was calculated as ½×length×width^2. Three PDX models in total were evaluated for response to single treatments or combined treatments. All animal experiments were approved by the Institutional Animal Care and Use Committee of Chang Gung University.

[10] = system: patient #2 PDX; test: OSCC PDX model, patient #2, tumor growth; assay type: in vivo, NSG mice; details: PF477736 20 mg/kg; for growth of PDX tumors vs control: Cisplatin 5 mg/kg, combined vs control p=0.006
Procedure: as §2

[11] = system: patient #3 PDX; test: OSCC PDX model, patient #3, tumor growth; assay type: in vivo, NSG mice; details: Cisplatin 5 mg/kg, PF477736 20 mg/kg, combined vs control p=0.03
Procedure: For OSCC PDX animal model, three patients of newly diagnosed were recruited, and written consents were obtained in accordance with the protocols approved by the Institutional Review Board of Chang Gung Memorial Hospital. Patient tumor explants were prepared from surgical specimens, and engrafted into NSG mice within 2 hours. Briefly, fresh tumor tissues were rinsed in PBS containing an antibiotic-antimycotic solution (Gibco, USA), and chopped into small pieces (˜1 mm^3). Each NSG mouse was subcutaneously grafted with 50-100 mg tumors in the left flank. When tumors reached 400-500 mm^3 in size, animals were randomly assigned into control and different treatment groups. Treatments for each single drug were the same as those used in the SAS CDX model as described above. […] Tumors were measured with calipers, and the volume was calculated as ½×length×width^2. Three PDX models in total were evaluated for response to single treatments or combined treatments. […]

[12] = system: SAS cells; test: apoptosis assay (Annexin V and PI staining), SAS cells; assay type: cell-based; details: 48 hours
Procedure: as §1

[13] = system: OC3 cells; test: apoptosis assay (Annexin V and PI staining), OC3 cells; assay type: cell-based; details: 48 hours
Procedure: as §1

[14] = system: OEC-M1 cells; test: apoptosis assay (Annexin V and PI staining), OEC-M1 cells; assay type: cell-based; details: 48 hours
Procedure: as §1

[15] = biological target: T1, CHK1 (Homo sapiens, UniProt O14757); test: immunoblotting of UV-induced phosphorylation of CHK1 at Ser296 in SAS cells; details: SAS cells after UV exposure
T1 sequence (O14757 1-476): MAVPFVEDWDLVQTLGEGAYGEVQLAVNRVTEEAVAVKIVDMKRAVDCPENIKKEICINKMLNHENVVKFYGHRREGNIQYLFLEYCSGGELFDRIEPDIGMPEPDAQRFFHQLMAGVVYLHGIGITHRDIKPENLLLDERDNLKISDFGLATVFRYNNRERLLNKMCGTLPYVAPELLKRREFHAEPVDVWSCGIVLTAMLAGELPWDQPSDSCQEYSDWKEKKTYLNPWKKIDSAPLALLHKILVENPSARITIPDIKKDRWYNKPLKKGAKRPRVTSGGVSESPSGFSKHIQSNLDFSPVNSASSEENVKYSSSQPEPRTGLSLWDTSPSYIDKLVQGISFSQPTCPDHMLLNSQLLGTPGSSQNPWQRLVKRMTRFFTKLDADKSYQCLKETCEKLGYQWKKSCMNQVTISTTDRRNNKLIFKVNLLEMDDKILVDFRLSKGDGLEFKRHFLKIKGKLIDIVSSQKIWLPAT
Procedure: After treatments, whole-cell lysates from each sample were prepared by lysed with RIPA lysis buffer (1% NP—40, 20 mM Tris-HCl (pH 7.5), 150 mM NaCl, 1 mM Na3VO4, 5 mM EDTA (pH 8.0), 10% glycerol, PMSF, and 0.2% protease inhibitor) for 15-30 minutes on ice, and centrifuged at 15,000×g for 20 min at 4° C. Equal amounts of protein from each sample were fractionated by SDS-PAGE, and transferred to a PVDF membrane, which was incubated with the appropriate primary antibody. Proteins were detected with HRP-conjugated secondary antibodies and ECL substrate (PerkinElmer, USA).
On the molecular level, the biochemical effects of the three CHK1 inhibitors in SAS cells were characterized. DNA damage was first induced by UV exposure, and the CHK1 inhibitors were then applied to the injured cells.

Structure (SMILES): Cc1nc(NC(=O)N2CCC[C@H]2C(N)=O)sc1-c1ccnc(C(C)(C)C(F)(F)F)c1 [BYL719, Alpelisib]
- cell viability / proliferation (MTT) [1]: clear reduction in proliferation
- cell viability / proliferation (MTT) [2]: clear reduction in proliferation
- IC50 [3]: 8 to 20 µM
- colony-forming ability [4]: compromised in a dose-dependent manner
- colony-forming ability [5]: compromised in a dose-dependent manner
- cell apoptosis (Annexin V staining) [6]: gradually elevation in apoptosis
- phosphorylation of AKT [7]: specifically inhibited phosphorylation of AKT
- tumor growth vs control ([8]; 50 mg/kg orally 5 days/week, p=0.011): significantly suppressed tumor growth
- tumor growth vs control ([9]; BYL719 50 mg/kg, monotherapy p=0.66, combined p=0.844): could not inhibit tumor growth
- tumor growth vs control ([10]; BYL719 50 mg/kg, monotherapy p=0.16, combined p=0.036): slightly inhibited tumor growth

Structure (SMILES): N.N.[Cl][Pt][Cl] [Cisplatin]
- tumor growth vs control ([8]; 5 mg/kg intraperitoneally 2 days/week, p=0.03): exhibited an ability to inhibit tumor growth
- growth of PDX tumors vs control [9]: partially but not significantly inhibit the growth
- growth of PDX tumors vs control [10]: partially but not significantly inhibit the growth
- growth of PDX tumors vs control [11]: partially but not significantly inhibit the growth

Structure (SMILES): CS(=O)(=O)N1CCN(Cc2cc3nc(-c4cccc5[nH]ncc45)nc(N4CCOCC4)c3s2)CC1 [GDC-0941, Pictilisib]
- cell viability / proliferation (MTT) [1]: clear reduction in proliferation
- cell viability / proliferation (MTT) [2]: clear reduction in proliferation
- phosphorylation of AKT [7]: specifically inhibited phosphorylation of AKT

Structure (SMILES): O=C1NC(=O)/C(=C/c2ccc3nccc(-c4ccncc4)c3c2)S1 [GSK1059615, (Z)-5-((4-(pyridin-4-yl)quinolin-6-yl)methylene)thiazolidine-2,4-dione]
- cell viability / proliferation (MTT) [1]: clear reduction in proliferation
- cell viability / proliferation (MTT) [2]: clear reduction in proliferation
- phosphorylation of AKT [7]: specifically inhibited phosphorylation of AKT

Structure (SMILES): COc1cccc(OCCCN)c1-c1cc(Nc2cnc(C#N)cn2)n[nH]1 [LY2606368, Prexasertib]
- cell viability / proliferation (MTT) [1]: dose-dependent inhibition
- cell viability / proliferation (MTT) [2]: dose-dependent inhibition

Structure (SMILES): Cn1cc(-c2[nH]c3cc(NC(=O)[C@H](N)C4CCCCC4)cc4c3c2C=NNC4=O)cn1 [PF477736, (R)-2-amino-2-cyclohexyl-N-(2-(1-methyl-1H-pyrazol-4-yl)-6-oxo-5,6-dihydro-1H-[1,2]diazepino[4,5,6-cd]indol-8-yl)acetamide]
- cell viability / proliferation (MTT) [1]: dose-dependent inhibition
- IC50 ([1]; MTT, read-out: half-maximal inhibitory concentration (IC50)): 0.12 to 0.4 µM
- cell viability / proliferation (MTT) [2]: dose-dependent inhibition
- IC50 ([2]; OECM1, MTT, read-out: half-maximal inhibitory concentration (IC50)): 10 µM
- colony-forming ability [4]: significantly impaired the colony-forming ability
- colony-forming ability [5]: significantly impaired the colony-forming ability
- cell apoptosis (Annexin V and PI staining) [12]: significantly exacerbated cell apoptosis
- cell apoptosis (Annexin V and PI staining) [13]: significantly exacerbated cell apoptosis
- cell apoptosis (Annexin V and PI staining) [14]: significantly exacerbated cell apoptosis
- tumor growth vs control ([8]; 10 mg/kg intraperitoneally 4 days/week, p=0.083): could barely suppress tumor growth
- tumor growth vs control ([8]; 20 mg/kg intraperitoneally 4 days/week, p=0.081): could barely suppress tumor growth
- growth of PDX tumors vs control [9]: partially but not significantly inhibit the growth
- growth of PDX tumors vs control [10]: partially but not significantly inhibit the growth
- growth of PDX tumors vs control [11]: partially but not significantly inhibit the growth
- phosphorylation of CHK1 at Ser296 [15]: specifically reduce phosphorylation of CHK1
